# Experimental data: patent US20050233389A1, “Methods and compositions for peptide and protein labeling” (priority 2003, published 2005)
# How the values were obtained:
# BirA = BirA (Escherichia coli, UniProt P06709); experiment: Measurement of probe ligation kinetics (HPLC); type: biochemical, E. coli; conditions: for initial rate for ligation to synthetic AP: 100 μM AP, 30° C.
# Protocol: (§1) HPLC assay for probe ligation to synthetic AP. The synthetic acceptor peptide (AP) with sequence […] (SEQ ID NO: 22) was synthesized by the Tufts University Core Facility. […] Following lyophilization, the peptide was redissolved in water, and the concentration was determined from the absorbance at 280 nm using the calculated extinction coefficient of 5690 M^−1cm^−1. Reaction conditions for the probe ligation to the AP were as follows: 50 mM bicine pH 8.3, 5 mM Mg(OAc)2, 4 mM ATP, 100 μM AP, 1-2 μM BirA, and 1 mM probe (either biotin or racemic ketone 1). Reactions were incubated at 30° C. for 1-2 hours, then quenched with addition of 45 mM EDTA. Reactions were analyzed on a reverse-phase HPLC column (Microsorb-MV 300 C18). Biotin ligation reactions were analyzed using a gradient of 10-43% acetonitrile/water with 0.1% TFA over 20 minutes (flow rate 1.0 mL/min); retention times were 8.2 minutes for biotin, 16.3 minutes for the AP, and 17.7 minutes for the AP-biotin conjugate. Ketone 1 ligation reactions were analyzed using a gradient of 10-46% acetonitrile/water with 0.1 % TFA over 25 minutes (flow rate 1.0 mL/min); retention times were 16.4 minutes for ketone 1, 17.9 minutes for the AP, and 22.0 minutes for the AP-ketone 1 conjugate. For MALDI-TOF analysis, the product peak was collected, diluted with matrix solution (saturated α-cyano 4-hydroxycinnamic acid in 50% acetonitrile/water with 0.05% TFA), and spotted onto the sample target. Positive-ion MALDI-TOF data was acquired in reflector mode with external calibration.
# Measurement of probe ligation kinetics. For kinetic measurements, the reaction conditions were the same as above except that 0.091 μM BirA was used, and for the ketone ligation reactions, 2 mM of racemic ketone 1 was used. A 400 μL reaction was initiated by addition of BirA and incubated at 30° C. At various timepoints, a 40 μL aliquot was removed and quenched with EDTA. Reactions were analyzed by reverse-phase HPLC as described above. The area ratios of AP and AP-probe conjugate peaks were converted to concentrations of AP-probe conjugate using a calibration curve generated by mixing known ratios of AP and AP-probe conjugate. The concentration of AP-probe conjugate was plotted versus time, and the reported initial rate was the slope of the line fit to the linear region of product synthesis.
# wild-type BirA = wild-type BirA (Escherichia coli, UniProt P06709); experiment: HPLC assay for probe ligation to synthetic AP; type: biochemical, E. coli; conditions: enantiomers separated by chiral HPLC; data not shown
# Sequence of wild-type BirA (P06709 whole entry): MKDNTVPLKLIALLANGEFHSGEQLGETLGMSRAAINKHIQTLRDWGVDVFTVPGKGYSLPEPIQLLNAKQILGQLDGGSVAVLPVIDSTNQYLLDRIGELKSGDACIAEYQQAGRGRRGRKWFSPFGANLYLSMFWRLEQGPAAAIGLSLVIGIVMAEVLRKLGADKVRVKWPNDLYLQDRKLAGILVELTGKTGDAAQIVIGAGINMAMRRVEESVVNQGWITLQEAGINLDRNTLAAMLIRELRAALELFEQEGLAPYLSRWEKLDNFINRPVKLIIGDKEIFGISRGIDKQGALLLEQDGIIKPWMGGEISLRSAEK
# Protocol: as §1, with “For MALDI-TOF analysis, the product peak was collected, diluted with matrix solution (saturated α-cyano 4-hydroxycinnamic acid in 50% acetonitrile/water with 0.05% TFA), and spotted onto the sample target. Positive-ion MALDI-TOF data was acquired in reflector mode with external calibration.” left out
# streptavidin = streptavidin (Streptomyces avidinii, UniProt P22629); experiment: streptavidin binding to ketone 1; conditions: separate experiments; data not shown
# Sequence of streptavidin (P22629 25-183): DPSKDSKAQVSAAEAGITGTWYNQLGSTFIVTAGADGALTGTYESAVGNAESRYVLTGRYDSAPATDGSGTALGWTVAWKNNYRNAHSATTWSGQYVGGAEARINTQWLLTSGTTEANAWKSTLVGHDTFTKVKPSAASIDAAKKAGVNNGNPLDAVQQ
# Sequence of BirA (P06709 whole entry): as the sequence (P06709 whole entry) above
SMILES,conversion until which the ligation rate remained constant (BirA; 0.091 μM BirA),"initial rate for ligation to synthetic AP (BirA; 1 mM biotin, 0.091 μM BirA)",acceptance of separated enantiomers by BirA (wild-type BirA),enzyme turnovers after which the ligation rate slowed markedly (BirA; 0.091 μM BirA),"initial rate for ligation to synthetic AP (BirA; 2 mM racemic ketone 1, 0.091 μM BirA)","initial ligation rate, fold less than that for biotin ligation (BirA; ketone 1 vs biotin, identical conditions)",binding of streptavidin to the probe itself (streptavidin)
"O=C(O)CCCC[C@@H]1SC[C@@H]2NC(=O)N[C@@H]21 [biotin, reference compound]",> 50%,0.954 ± 0.018 µM/min,–,–,–,–,–
O=C(O)CCCC[C@@H]1SC[C@@H]2CC(=O)C[C@@H]21 [ketone 1],–,–,Only one enantiomer was accepted,~100 enzyme turnovers,0.258 ± 0.024 µM/min,3.7 fold,does not bind
